Assay results published in US20230348424A1, “HETEROCYCLIC COMPOUNDS AND METHODS OF USE” (Schrödinger, Inc., priority 2022, published 2023).

Target: SOS1:KRAS (G12C) interaction (Homo sapiens (Human), UniProt Q07889)
Assay: SOS1 KRas(G12C) FRET Assay
Assay type: binding
Settings: 0.5 nM His10-SOS1 (res. 564-1049), 2.5 nM GST-KRAS G12C (res. 1-169), 2 hrs at RT
Protocol: Inhibition of the SOS 1:KRAS interaction was measured using purified GST-tagged KRAS (res. 1-169, G12C, purified based on Hillig, et al., Proc Natl Acad Sci USA (2019); 116(7):2551-2560) and recombinant His10-SOS1 (res. 564-1049; purified based on Hillig, et al.). The final assay was performed at 20 uL with 0.5 nM SOS1 protein and 2.5 nM KRAS protein in a buffer of PBS, 0.1% BSA, 5 mM MgCh, 0.0025% Igepal, 100 mM KF, 5 mM DTT in a white 384 square well OptiPlate (PerkinElmer, Cat. 6007290). A 2x KRAS working solution was prepared in an assay buffer containing 5 nM GST-KRAS G12C and 2 nM anti-GST-Eu(K) (Cisbio, Cat. 61GSTKLA) and pre-incubated for 15 minutes at 25° C. […] The final DMSO concentration is 0.5%. Plates were incubated at RT for 2 hrs before the FRET signal was measured using Envision at emission 665 nm and 615 nm. FRET signal was converted to percentage of protein-protein interaction using the following equation:
• C: signal with compound treatment • P: signal for positive control (DMSO) • N: signal for negative control (no SOS1 added)
IC50 and Hill coefficients were obtained using Graph Pad Prism (Graph Pad software, Inc, USA) with non-linear regression analysis.

Sequence of SOS1:KRAS (G12C) interaction (Q07889 564-1049, stated change not applied): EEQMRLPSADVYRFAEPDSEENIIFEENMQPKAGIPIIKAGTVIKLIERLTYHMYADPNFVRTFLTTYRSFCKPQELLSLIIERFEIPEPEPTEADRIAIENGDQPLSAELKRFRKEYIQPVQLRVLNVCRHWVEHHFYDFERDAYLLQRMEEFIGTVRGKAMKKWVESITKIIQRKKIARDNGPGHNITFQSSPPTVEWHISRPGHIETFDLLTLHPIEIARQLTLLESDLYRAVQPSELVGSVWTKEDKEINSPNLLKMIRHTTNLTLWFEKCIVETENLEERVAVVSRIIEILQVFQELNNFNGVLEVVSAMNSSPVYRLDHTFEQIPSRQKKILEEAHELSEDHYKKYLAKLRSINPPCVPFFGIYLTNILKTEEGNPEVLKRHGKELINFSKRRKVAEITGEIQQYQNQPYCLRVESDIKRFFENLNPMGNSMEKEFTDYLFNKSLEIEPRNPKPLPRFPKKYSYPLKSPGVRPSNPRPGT

Row | Compound | IC50
1 | Cc1c([C@@H](C)NC(=O)c2cn(C3CCOCC3)c(=O)cc2N[C@H]2[C@@H]3C[C@H]2CN(C)C3)cccc1C(F)(F)F (single isomer, unassigned) [Example 23] | 47.1 nM
2 | C[C@@H](NC(=O)c1cn(C2(C(F)(F)F)CC2)c(=O)cc1NC1CCN(C)CC1)c1cccc(C(F)F)c1F [Example 75, (R)-N-(1-(3-(difluoromethyl)-2-fluorophenyl)ethyl)-4-((1-methylpiperidin-4-yl)amino)-6-oxo-1-(1-(trifluoromethyl)cyclopropyl)-1,6-dihydropyridine-3-carboxamide] | 15.5 nM
3 | C[C@@H](NC(=O)c1cn(C2(C(F)F)CC2)c(=O)cc1N[C@H]1CCN(C)C[C@H]1F)c1cccc(C(F)F)c1F (single isomer, unassigned) [Example 68] | 14.3 nM
4 | C[C@@H](NC(=O)c1cn(C2(C(F)F)CC2)c(=O)cc1N[C@H]1[C@@H]2CC[C@H]1CN(C)C2)c1cccc(C(F)F)c1F (single isomer, unassigned) [Example 245] | 44.2 nM
5 | Cc1c([C@@H](C)NC(=O)c2cn(C3CCOCC3)c(=O)cc2NCCONC(=N)N)cccc1C(F)(F)F [Example 46, (R)-4-((2-(guanidinooxy)ethyl)amino)-N-(1-(2-methyl-3-(trifluoromethyl)phenyl)ethyl)-6-oxo-1-(tetrahydro-2H-pyran-4-yl)-1,6-dihydropyridine-3-carboxamide] | 18.2 nM
6 | C[C@@H](NC(=O)c1cn(C23CC(C2)C3)c(=O)cc1N[C@@H]1CCN(C)C[C@@H]1F)c1cccc(C(F)F)c1F (single isomer, unassigned) [Example 204] | 3.61 nM
7 | C[C@@H](NC(=O)c1cn(C2(C(F)F)CC2)c(=O)cc1NC[C@H]1CCCN1C)c1cccc(C(F)F)c1F [Example 221, N-((R)-1-(3-(difluoromethyl)-2-fluorophenyl)ethyl)-1-(1-(difluoromethyl)cyclopropyl)-4-((((R)-1-methylpyrrolidin-2-yl)methyl)amino)-6-oxo-1,6-dihydropyridine-3-carboxamide] | 38.2 nM
8 | Cc1c([C@@H](C)NC(=O)c2cn(C3CCOCC3)c(=O)cc2N[C@H]2CC[C@@]23CCCN(C)C3)cccc1C(F)(F)F (single isomer, unassigned) [Example 296] | 252 nM
9 | C[C@@H](NC(=O)c1cn(C2CCC2)c(=O)cc1N[C@H]1[C@@H]2CN(C)C[C@@H]21)c1cccc(C(F)(F)F)c1F [Example 207, 1-cyclobutyl-N-((R)-1-(2-fluoro-3-(trifluoromethyl)phenyl)ethyl)-4-(((1R,5S,6s)-3-methyl-3-azabicyclo[3.1.0]hexan-6-yl)amino)-6-oxo-1,6-dihydropyridine-3-carboxamide] | 9.3 nM
10 | Cc1c([C@@H](C)NC(=O)c2cn(C3CCOCC3)c(=O)cc2N[C@@H]2[C@@H]3CC[C@H]2CN(C)C3)cccc1C(F)(F)F (single isomer, unassigned) [Example 31] | 27.6 nM
11 | Cc1c([C@@H](C)NC(=O)c2cn(C3CCOCC3)c(=O)cc2N[C@H]2CC[C@]23CCCN(C)C3)cccc1C(F)(F)F (single isomer, unassigned) [Example 298] | 88.1 nM
12 | C[C@@H](NC(=O)c1cn(C23CC(C2)C3)c(=O)cc1N[C@H]1[C@@H]2CN(C)C[C@@H]21)c1cccc(S(F)(F)(F)(F)F)c1 [Example 161, 1-(bicyclo[1.1.1]pentan-1-yl)-4-(((1R,5S,6s)-3-methyl-3-azabicyclo[3 .1.0]hexan-6-yl)amino)-6-oxo-N-((R)-1-(3-(pentafluoro-16-sulfaneyl)phenyl)ethyl)-1,6-dihydropyridine-3-carboxamide] | 24 nM
13 | Cc1c([C@@H](C)NC(=O)c2cn(C3CCOCC3)c(=O)cc2N[C@H]2[C@@H]3CC[C@H]2CN(C)C3)cccc1C(F)(F)F (single isomer, unassigned) [Example 32] | 58.2 nM
14 | C[C@@H](NC(=O)c1cn(C2CCC2)c(=O)cc1N[C@H]1[C@@H]2CC[C@H]1CN(C)C2)c1cccc(C(F)F)c1F (single isomer, unassigned) [Example 214] | 10.6 nM
15 | C[C@@H](NC(=O)c1cn(C2(C(F)F)CC2)c(=O)cc1NC[C@@H]1CCCN1C)c1cccc(C(F)F)c1F [Example 188, N-((R)-1-(3-(difluoromethyl)-2-fluorophenyl)ethyl)-1-(1-(difluoromethyl)cyclopropyl)-4-((((S)-1-methylpyrrolidin-2-yl)methyl)amino)-6-oxo-1,6-dihydropyridine-3-carboxamide] | 41.3 nM
16 | C[C@@H](NC(=O)c1cn([C@H]2C[C@H](C3CC3)C2)c(=O)cc1N[C@H]1[C@@H]2CN(C)C[C@@H]21)c1cccc(C(F)F)c1F (single isomer, unassigned) [Example 249] | 16.5 nM
17 | C[C@@H](NC(=O)c1cn(C23CC(C2)C3)c(=O)cc1N[C@H]1[C@@H]2CN(C)C[C@@H]21)c1cccc(C(F)(F)F)c1F [Example 205, 1-(bicyclo[1.1.1]pentan-1-yl)-N-((R)-1-(2-fluoro-3-(trifluoromethyl)phenyl)ethyl)-4-(((1R,5S,6s)-3-methyl-3-azabicyclo[3.1.0]hexan-6-yl)amino)-6-oxo-1,6-dihydropyridine-3-carboxamide] | 26.6 nM
18 | C[C@@H]1[C@@H](n2cc(C(=O)N[C@H](C)c3cccc(C(C)(F)F)c3F)c(N[C@H]3[C@@H]4CN(C)C[C@@H]43)cc2=O)C1(F)F (single isomer, unassigned) [Example 195] | 5.44 nM
19 | C[C@@H](NC(=O)c1cn([C@H]2C[C@@H]2C2CC2)c(=O)cc1NC1CCN(C)CC1)c1cccc(C(F)F)c1F (single isomer, unassigned) [Example 73] | 13 nM
20 | C[C@@H](NC(=O)c1cn(C2(C(F)F)CC2)c(=O)cc1NC1CCN(C)CC1)c1ccc(F)c(C(F)(F)F)c1 (single isomer, unassigned) [Example 167] | > 10000 nM
21 | Cc1c(C#N)cccc1[C@@H](C)NC(=O)c1cn([C@@H]2[C@@H](C)C2(F)F)c(=O)cc1N[C@H]1[C@@H]2CN(C)C[C@@H]21 (single isomer, unassigned) [Example 193] | 151 nM
22 | C[C@@H](NC(=O)c1cn([C@H]2CCC2(F)F)c(=O)cc1N[C@H]1[C@@H]2CN(C)C[C@@H]21)c1cccc(C(F)(F)F)c1 (single isomer, unassigned) [Example 257] | 85.8 nM
23 | C[C@@H](NC(=O)c1cn([C@]23COC[C@H]2C3)c(=O)cc1N[C@H]1[C@@H]2CN(C)C[C@@H]21)c1cccc(C(F)F)c1F [Example 287, 1-((1S,5S)-3-oxabicyclo[3.1.0]hexan-1-yl)-N-((R)-1-(3-(difluoromethyl)-2-fluorophenyl)ethyl)-4-(((1R,5S,6s)-3-methyl-3-azabicyclo[3.1.0]hexan-6-yl)amino)-6-oxo-1,6-dihydropyridine-3-carboxamide] | 9.9 nM
24 | C[C@@H](NC(=O)c1cn(C2(CF)CC2)c(=O)cc1N[C@@H]1[C@@H]2CC[C@H]1CN(C)C2)c1cccc(C(F)F)c1F (single isomer, unassigned) [Example 261] | 41.4 nM
25 | COC12CC(CNc3cc(=O)n(C45CC(C4)C5)cc3C(=O)N[C@H](C)c3cccc(C(F)F)c3F)(C1)C2 [Example 262, (R)-1-(bicyclo[1.1.1]pentan-1-yl)-N-(1-(3-(difluoromethyl)-2-fluorophenyl)ethyl)-4-(((3-methoxybicyclo[1.1.1]pentan-1-yl)methyl)amino)-6-oxo-1,6-dihydropyridine-3-carboxamide] | 116 nM
